Laboratory results reported in EP4620468A1, “BUTASELEN-CYCLODEXTRIN INCLUSION COMPLEX, PHARMACEUTICAL COMPOSITION, METHOD FOR PREPARING SAME, AND USE THEREOF” (Shanghai Yuanxi Medicine Corp., priority 2022, dated 2024).
Converted amounts (≈) assume the structure as drawn.

Assays:
[1] = tested on: U87 brain glioma subcutaneous model; assay: Administration by injection (intraperitoneal) experiment of U87 brain glioma subcutaneous model in Balb/c nude mice; assay type: in vivo
Excerpt: After 2 days of animal acclimation, qualified animals were retained and randomized into 5 groups, with 6 animals in each group of a control group, a TMZ group, and a BS group. There were 5 animals in each group of the BS+TMZ treatment group and the BS+TMZ prevention group. Mice in the BS group were inoculated subcutaneously in right axillas with U87 cells at 2×10^6/mouse. Administration was started to be performed 14 days after inoculation, which was day 0 of treatment. Administration was performed for a total of 18 days.
A drug treatment regimen was as follows: Blank control group (0.9% NaCl, i.p., q.d.); TMZ group (10 mg/kg, i.p., qd.); BS group (30 mg/kg, i.p., q.d.); BS+TMZ treatment group (10 mg/kg of TMZ, i.p., qd., and 90 mg/kg of BS, i.g., q.d.); BS+TMZ prevention group (10 mg/kg of TMZ, i.p., qd., and 90 mg/kg of BS, i.g., q.d.). […] were injected into tail veins.
(§1) The general condition of the animals and the time of tumor occurrence were recorded daily during the experiment, a long diameter and a short diameter of tumors in the mice were recorded daily, and a tumor volume was calculated according to a formula: long diameter×(short diameter)^2×0.5236, and a body weight of the animals were measured every 3 days. After 18 days of administration, anesthesia was performed with chloral hydrate, and eyeballs were removed for blood collection. The mice were sacrificed, tumors, hearts, livers, spleens, lungs, kidneys, thymuses, whole brains, and intestines were rapidly isolated, blood stains were washed away with ice saline, the tumors, hearts, livers, spleens, lungs, kidneys, thymuses, whole brains, and intestines were wiped to be dry with filter paper, whether there were lesions in internal organs of the animals were observed, and the tumors, hearts, livers, spleens, lungs, kidneys, thymuses, whole brains, and intestines were weighed. A portion of tumor tissue was taken and stored in liquid nitrogen for RNA and protein extraction. Another portion of tumor tissue was placed in a tissue fixative solution for fixation. Distribution of the Se content in brain tissue was detected by Inductively coupled plasma-Mass Spectrometry (ICP-MS).
Female six-week-old Balb/c Nude mice were selected to establish an animal model and inoculated subcutaneously with U87 human-derived glioma cells at 2×10^6/mouse. Administration was started to be performed on day 14 after inoculation, and was continued to be performed for 18 days.
To compare the difference in efficacy between oral gavage administration and intraperitoneal injection administration, the control group, the TMZ group (10 mg/Kg) and the BS group (30 mg/Kg) were administered intraperitoneally once a day in this round of experiment. The mice in the control group were given 0.9% NaCl.
To compare the therapeutic efficacy and preventive efficacy of the combined application of BS and TMZ, combined administration groups were set in this round of experiment: a BS+TMZ treatment group (90 mg/Kg of BS&10 mg/Kg of TMZ) and a BS+TMZ prevention group (90 mg/Kg of B S& 10 mg/Kg of TMZ). The B S+TMZ treatment group was abbreviated as a BS+TMZ (A) group, and tumors with a volume of more than 20 mm^3 were normally formed in the mice on day 14 after U87 inoculation, and the administration was started to be performed to observe the efficacy of the combined use on inhibiting tumor proliferation. The BS+TMZ prevention group is abbreviated as a BS+TMZ (B) group, and tumors with a volume of less than 20 mm^3 were formed in the mice on day 14 after U87 inoculation, and the administration was started to observe the efficacy of the combined use on the prevention of tumor formation. The mice in the combined groups were administered by single daily oral gavage. The start time of administration was Day 1, a second day of administration was Day 2, and so on.

[2] = Body weight and general condition of U87 tumor-bearing nude mice during administration; assay type: in vivo, Balb/c nude mice
Procedure: as §1

[3] = Body weight and clinical observation of NPG mice during administration; assay type: in vivo; settings: BS 30 and 90 mg/kg, intraperitoneal injection
Procedure: All animals were observed once a day during the experiment period. The observation content included death or dying, feces, a feeding status, a mental status, and behavioral activities, etc. If any abnormal situation was found, it was recorded in time. All animals were weighed once before grouping, three times per week after administration, and once before euthanasia.
No clinical abnormal symptoms or animal deaths due to drug toxicity were observed during this experiment.

[4] = Distribution of BS in brain tissue of ICR mice after intraperitoneal injection, ICP-MS; assay type: in vivo; settings: female, mouse, ip, intraperitoneal injection 90 mg/kg
Procedure: The distribution of BS in mouse brain tissue was examined as follows: Brain glioma is located in the skull and has a special lesion location. Thus, it is critical whether a drug can cross the blood-brain barrier and act at the lesion site. In order to detect whether BS can reach brain tissue through the blood-brain barrier, female six-week-old ICR mice were selected for the study. The mice were intraperitoneally injected with 90 mg/kg of BS, and brain tissues before administration and brain tissues at 0.5 h, 1 h, 2 h and 3 h after administration were taken for ICP-MS detection. The BS content per gram of brain tissue was calculated by detecting the selenium content per gram of brain tissue.

[5] = tested on: high-grade astrocytoma in human spinal cord; assay: Subcutaneous patient-derived xenograft (PDX) mouse model of high-grade astrocytoma in human spinal cord; assay type: in vivo, NPG mice; settings: for tumor sizes at the end of the experiment: no unit at the values (tumor volume formula in mm^3), in mm³; for tumor volume inhibition rate: end of experiment
Procedure: • 1) Grouping of animals: the animals were subcutaneously inoculated with tumor tissue pieces, and after tumors were formed in the animals, the animals were grouped based on a principle of a similar mean tumor volume; • 2) Mode of administration: intraperitoneal injection of BS and TMZ (i.p., q.d.×17 days); • 3) Detection indexes: mouse body weight and subcutaneous tumor volume.
BS injections, with a drug content being 30 mg of BS and 90 mg of BS; and 1 mg of TMZ was weighed and dissolved in 1 ml of 0.5% CMC-Na and the obtained solution was uniformly dispersed by an ultrasound-assisted manner to obtain a TMZ drug solution, which was prepared immediately before use each time.
• Animal species: NPG mice, Animal grade: SPF grade, and Sex and number: female, 32 • Animal weight range: 20-25 g, Animal age range: 5-6 weeks old, and Animal source: Beijing Vitalstar Biotechnology Co., Ltd.
The animals were randomly divided into four groups according to Table 5, with 8 animals in each group of a control group, a BSL group, a BSH group and a TMZ group.
Tumor masses (2-3 mm^3) of high-grade astrocytoma in a human spinal cord were prepared and inoculated in right axillas of NPG mice, and after inoculation, a mouse status was routinely observed and the tumor size was measured. Screening was performed according to the tumor volume, animals with a tumor volume of 450 mm^3 were selected for the experiment, and those with an excessive tumor volume and no tumor formation were not selected. A total of 32 suitable tumor-bearing animals were screened for the experiment, and were divided into 4 experimental groups, with 8 mice in each group. The day of first administration was recorded as D1, a second day of administration was recorded as D2, and so on. All animals were administered through single daily intraperitoneal injection for 24 consecutive days.
During the experiment, a long diameter and a short diameter of the tumors in all the animals were measured daily. And a tumor volume (mm^3) was calculated and a formula was as follows: Tumor volume=0.5236×long diameter×short diameter×short diameter.

[6] = Distribution of BS in brain tissue of U87 nude mice by ICP-MS (selenium content); assay type: in vivo; settings: Balb/c nude, mouse, BS 30 mg/kg, injection dosage form (intraperitoneal), after the experiment, calculated from selenium content
Procedure: as §1, with “A portion of tumor tissue was taken and stored in liquid nitrogen for RNA and protein extraction. Another portion of tumor tissue was placed in a tissue fixative solution for fixation.” left out
Brain tissues of the mice after the experiment of BS+TMZ gavage (90+10 mg/kg) and BS intraperitoneal injection (30 mg/kg) were taken and detected by ICP-MS. By detecting the selenium content per gram of brain tissue, the BS content per gram of brain tissue was calculated. […]

[7] = tested on: U87 brain glioma subcutaneous model; assay: Gavage administration experiment of U87 brain glioma subcutaneous model in Balb/c nude mice; assay type: in vivo; settings: BS 90 mg/kg, oral administration (i.g., q.d.), 11 days
Procedure: After 2 days of animal acclimation, qualified animals were retained and randomized into 6 groups, with 7 animals in each group. Mice were inoculated subcutaneously in right axillas with U87 cells at 2×10^6/mouse. Administration was started to be performed 12 days after inoculation, which was day 0 of treatment. Administration was performed for a total of 11 days.
A drug treatment regimen was as follows: Blank control group (0.5% CMC-Na, i.g., q.d.); TMZ group (30 mg/kg, i.g., q.d.); BSL group (10 mg/kg, i.g., q.d.); BSM group (90 mg/kg, i.g., q.d.); BSH group (180 mg/kg, i.g., q.d.); and BSM+TMZ group (30 mg/kg of TMZ, 90 mg/kg of BS, i.g., q.d.).
The general condition of the animals and the time of tumor occurrence were recorded daily during the experiment, a long diameter and a short diameter of tumors in the mice were recorded daily, and a tumor volume was calculated according to a formula: long diameter×(short diameter)^2×0.5236, and a body weight of the animals were measured every 3 days. After 18 days of administration, anesthesia was performed with chloral hydrate, and eyeballs were removed for blood collection. […] Distribution of the Se content in brain tissue was detected by Inductively coupled plasma-Mass Spectrometry (ICP-MS).

[8] = Solubility of butaselen in water; assay type: physicochemical
[9] = BS 30 mg/kg, intraperitoneal injection, q.d., 18 days, end of experiment
[10] = BS 30 mg/kg, intraperitoneal, end of experiment
[11] = TMZ 10 mg/kg, intraperitoneal, experiment in this group ended early on day 12

**Q.** What does the source list for `O=c1c2ccccc2[se]n1CCCCn1[se]c2ccccc2c1=O` [BS, butaselen]?
**A.** Tumor volume (mm^3) [1, 9]: 105.18±66.62 mm^3; Volume inhibition rate (%) [1, 9]: 81.12%; Tumor weight [1, 10]: 0.13 ± 0.08 g; Weight inhibition rate (%) [1, 10]: 66.67%; toxic and side effects on tumor-bearing nude mice ([2]; BS group, BS+TMZ (A) and (B) groups, normal diet, activities, mental status): no obvious toxic and side effects; toxic and side effects on the NPG mice [3]: no obvious toxic and side effects; weight loss ([3]; NPG mice): no significant weight loss; concentration at 0.5 h ([4]; 0.5 h after administration): 439 ng/g; concentration at 1 h ([4]; 1 h after administration): 372 ng/g; concentration at 2 h ([4]; 2 h after administration (peak)): 528 ng/g; concentration at 3 h ([4]; 3 h after administration): 419 ng/g; tumor sizes at the end of the experiment ([5]; BS 30 mg/kg i.p. q.d.): 4593.83±2725.69; tumor sizes at the end of the experiment ([5]; BS 90 mg/kg i.p. q.d.): 2999.76±2191.03; tumor volume inhibition rate ([5]; high-dose BS group (90 mg/kg i.p.)): 35.19%; tumor volume inhibition rate ([5]; low-dose BS group (30 mg/kg i.p.)): -10.54%; concentration at 18 days [6]: 121 ng/g; Tumor volume (mm^3) [7]: 122.05±33.15 mm^3; Volume inhibition rate (%) [7]: 78.87%; solubility [8]: ~0.15 µg/mL (≈ 0.333 µM)

**Q.** What does the source list for `Cn1nnc2c(C(N)=O)ncn2c1=O` [TMZ, temozolomide, reference compound]?
**A.** Tumor volume (mm^3) [1, 11]: 343.23±245.20 mm^3; Tumor weight [1, 11]: 0.19 ± 0.08 g; body weight of the mice ([2]; TMZ group (30 mg/Kg as printed), U87 tumor-bearing nude mice, group ended on day 12): significantly decreased; tumor sizes at the end of the experiment ([5]; TMZ 5 mg/kg i.p. q.d.): 2693.29±1682.23; tumor volume inhibition rate ([5]; TMZ group (5 mg/kg i.p.)): 27.82%
